Assay results taken from the supplement of paper PMC10307832.

Experiments:
Test in all cases: relative viability (nuclei count vs DMSO), 5 days (fraction); higher = more cells survive
NCI-H1734 = system: NCI-H1734
In short: (§1)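 Values are medians from duplicate plates. Each reflects relative viability, defined as the nuclei count of treated wells over that of vehicle wells. Lung cancer cell lines in 1536-well plates were pin-tool dosed one day after seeding with one drug alone or with a fixed anchor-drug dose plus five library-drug doses (not always all listed) in √10 steps, then fixed, stained and imaged at 4× after 5 days.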

RERF-LC-KJ = system: RERF-LC-KJ
In short: as §1

NCI-H1975 = system: NCI-H1975
In short: as §1

LCLC-97TM1 = system: LCLC-97TM1
In short: as §1

PC-3 [JPC-3] = system: PC-3 [JPC-3]
In short: as §1

NCI-H322M = system: NCI-H322M
In short: as §1

NCI-H1650 = system: NCI-H1650
In short: as §1

CAL-12T = system: CAL-12T
In short: as §1

PC-14 = system: PC-14
In short: as §1

HCC-827 = system: HCC-827
In short: as §1

LK-2 = system: LK-2
In short: as §1

NCI-H520 = system: NCI-H520
In short: as §1

NCI-H2342 = system: NCI-H2342
In short: as §1

NCI-H1755 = system: NCI-H1755
In short: as §1

HCC-15 = system: HCC-15
In short: as §1

NCI-H1355 = system: NCI-H1355
In short: as §1

EKVX = system: EKVX
In short: as §1

H3255 = system: H3255
In short: as §1

NCI-H661 = system: NCI-H661
In short: as §1

NCI-H2405 = system: NCI-H2405
In short: as §1

NCI-H2228 = system: NCI-H2228
In short: as §1

CC(=O)O[C@@]12CO[C@@H]1C[C@H](O)[C@@]1(C)C(=O)[C@H](O)C3=C(C)[C@@H](OC(=O)[C@H](O)[C@@H](NC(=O)OC(C)(C)C)c4ccccc4)C[C@@](O)([C@@H](OC(=O)c4ccccc4)[C@H]21)C3(C)C [Docetaxel] + O=C(c1cc(Cc2n[nH]c(=O)c3ccccc23)ccc1F)N1CCN(C(=O)C2CC2)CC1 [Olaparib] (partner 8 µM)
relative viability (NCI-H1734; first compound 0.0002 µM): 0.498 | relative viability (NCI-H1734; first compound 0.000632 µM): 0.506 | relative viability (NCI-H1734; first compound 0.002 µM): 0.292 | relative viability (NCI-H1734; first compound 0.006325 µM): 0.324 | relative viability (NCI-H1734; first compound 0.02 µM): 0.196 | relative viability (RERF-LC-KJ; first compound 0.0002 µM): 0.793 | relative viability (RERF-LC-KJ; first compound 0.000632 µM): 0.608 | relative viability (RERF-LC-KJ; first compound 0.002 µM): 0.281 | relative viability (RERF-LC-KJ; first compound 0.02 µM): 0.172 | relative viability (NCI-H1975; first compound 0.0002 µM): 0.748 | relative viability (NCI-H1975; first compound 0.000632 µM): 0.448 | relative viability (NCI-H1975; first compound 0.002 µM): 0.239 | relative viability (NCI-H1975; first compound 0.006325 µM): 0.187 | relative viability (NCI-H1975; first compound 0.02 µM): 0.147 | relative viability (LCLC-97TM1; first compound 0.0002 µM): 0.467 | relative viability (LCLC-97TM1; first compound 0.000632 µM): 0.272 | relative viability (LCLC-97TM1; first compound 0.002 µM): 0.107 | relative viability (LCLC-97TM1; first compound 0.006325 µM): 0.0877 | relative viability (LCLC-97TM1; first compound 0.02 µM): 0.0634 | relative viability (PC-3 [JPC-3]; first compound 0.0002 µM): 1.13 | relative viability (PC-3 [JPC-3]; first compound 0.000632 µM): 1.03 | relative viability (PC-3 [JPC-3]; first compound 0.002 µM): 0.585 | relative viability (PC-3 [JPC-3]; first compound 0.006325 µM): 0.388 | relative viability (PC-3 [JPC-3]; first compound 0.02 µM): 0.234 | relative viability (NCI-H322M; first compound 0.0002 µM): 0.777 | relative viability (NCI-H322M; first compound 0.000632 µM): 0.797 | relative viability (NCI-H322M; first compound 0.002 µM): 0.721 | relative viability (NCI-H322M; first compound 0.006325 µM): 0.679 | relative viability (NCI-H322M; first compound 0.02 µM): 0.525 | relative viability (NCI-H1650; first compound 0.0002 µM): 0.64 | relative viability (NCI-H1650; first compound 0.000632 µM): 0.545 | relative viability (NCI-H1650; first compound 0.002 µM): 0.218 | relative viability (NCI-H1650; first compound 0.006325 µM): 0.241 | relative viability (NCI-H1650; first compound 0.02 µM): 0.162 | relative viability (CAL-12T; first compound 0.0002 µM): 0.591 | relative viability (CAL-12T; first compound 0.000632 µM): 0.392 | relative viability (CAL-12T; first compound 0.002 µM): 0.253 | relative viability (CAL-12T; first compound 0.006325 µM): 0.263 | relative viability (CAL-12T; first compound 0.02 µM): 0.173 | relative viability (PC-14; first compound 0.0002 µM): 0.276 | relative viability (PC-14; first compound 0.000632 µM): 0.164 | relative viability (PC-14; first compound 0.002 µM): 0.0642 | relative viability (PC-14; first compound 0.006325 µM): 0.0438 | relative viability (PC-14; first compound 0.02 µM): 0.0274 | relative viability (HCC-827; first compound 0.0002 µM): 0.626 | relative viability (HCC-827; first compound 0.000632 µM): 0.662 | relative viability (HCC-827; first compound 0.002 µM): 0.329 | relative viability (HCC-827; first compound 0.006325 µM): 0.287 | relative viability (HCC-827; first compound 0.02 µM): 0.23 | relative viability (LK-2; first compound 0.0002 µM): 0.599 | relative viability (LK-2; first compound 0.000632 µM): 0.249 | relative viability (LK-2; first compound 0.002 µM): 0.156 | relative viability (LK-2; first compound 0.006325 µM): 0.118 | relative viability (LK-2; first compound 0.02 µM): 0.0792 | relative viability (NCI-H520; first compound 0.0002 µM): 0.31 | relative viability (NCI-H520; first compound 0.000632 µM): 0.286 | relative viability (NCI-H520; first compound 0.002 µM): 0.22 | relative viability (NCI-H520; first compound 0.006325 µM): 0.165 | relative viability (NCI-H520; first compound 0.02 µM): 0.132 | relative viability (NCI-H2342; first compound 0.0002 µM): 0.525 | relative viability (NCI-H2342; first compound 0.000632 µM): 0.456 | relative viability (NCI-H2342; first compound 0.002 µM): 0.312 | relative viability (NCI-H2342; first compound 0.006325 µM): 0.348 | relative viability (NCI-H2342; first compound 0.02 µM): 0.301 | relative viability (NCI-H1755; first compound 0.0002 µM): 0.87 | relative viability (NCI-H1755; first compound 0.000632 µM): 0.729 | relative viability (NCI-H1755; first compound 0.002 µM): 0.578 | relative viability (NCI-H1755; first compound 0.006325 µM): 0.417 | relative viability (NCI-H1755; first compound 0.02 µM): 0.377 | relative viability (HCC-15; first compound 0.0002 µM): 0.72 | relative viability (HCC-15; first compound 0.000632 µM): 0.382 | relative viability (HCC-15; first compound 0.002 µM): 0.281 | relative viability (HCC-15; first compound 0.02 µM): 0.175 | relative viability (NCI-H1355; first compound 0.0002 µM): 0.732 | relative viability (NCI-H1355; first compound 0.000632 µM): 0.533 | relative viability (NCI-H1355; first compound 0.002 µM): 0.353 | relative viability (NCI-H1355; first compound 0.006325 µM): 0.203 | relative viability (NCI-H1355; first compound 0.02 µM): 0.164 | relative viability (EKVX; first compound 0.0002 µM): 0.839 | relative viability (EKVX; first compound 0.000632 µM): 0.557 | relative viability (EKVX; first compound 0.002 µM): 0.387 | relative viability (EKVX; first compound 0.006325 µM): 0.316 | relative viability (EKVX; first compound 0.02 µM): 0.167 | relative viability (H3255; first compound 0.0002 µM): 0.59 | relative viability (H3255; first compound 0.000632 µM): 0.555 | relative viability (H3255; first compound 0.002 µM): 0.439 | relative viability (H3255; first compound 0.006325 µM): 0.336 | relative viability (H3255; first compound 0.02 µM): 0.33 | relative viability (NCI-H661; first compound 0.0002 µM): 0.738 | relative viability (NCI-H661; first compound 0.000632 µM): 0.701 | relative viability (NCI-H661; first compound 0.002 µM): 0.592 | relative viability (NCI-H661; first compound 0.006325 µM): 0.434 | relative viability (NCI-H661; first compound 0.02 µM): 0.406 | relative viability (NCI-H2405; first compound 0.0002 µM): 0.875 | relative viability (NCI-H2405; first compound 0.000632 µM): 0.712 | relative viability (NCI-H2405; first compound 0.002 µM): 0.557 | relative viability (NCI-H2405; first compound 0.006325 µM): 0.419 | relative viability (NCI-H2405; first compound 0.02 µM): 0.329 | relative viability (NCI-H2228; first compound 0.0002 µM): 0.446 | relative viability (NCI-H2228; first compound 0.000632 µM): 0.275 | relative viability (NCI-H2228; first compound 0.002 µM): 0.153 | relative viability (NCI-H2228; first compound 0.006325 µM): 0.13 | relative viability (NCI-H2228; first compound 0.02 µM): 0.0992
